Experimental data from patent publication US20200170932A1, “EXTENDED RELEASE L-TRI-IODOTHYRONINE SAFELY NORMALIZES KEY ELEMENTS OF MOLECULAR PATHOLOGY IN ALZHEIMERS DISEASE” (priority 2018, published 2020).

Experiments:
patients with AD = assay: Administering T3 to patients with AD (clinical observation); type: in vivo, human
Excerpt: The noradrenerigic neurotransmitter system is dependent on normal thyroid hormone activity for normal function. A deficient amount of thyroid hormone activity leads to downregulation of the noradrenergic system. This leads to attenuated postsynaptic effects and a failure to prosecute the noradrenergic mandate. In AD this phenomenon accounts for various signs and symptoms. There are aberrations of the diurnal rhythm including insomnia and daytime somnolence. Depression and/or anxiety may occur. Drooping of the upper eyelid (ptosis) is frequently seen in AD. The levator palpebrae superioris muscle, the elevator of the upper eyelid, is partially innervated by the sympathetic nervous system.

[1] = following ingestion; cited from earlier work
rat model of AD = rat model of AD (Sarkar); cited from earlier work
[2] = compounding pharmacies' technology, personal communication; cited from earlier work

N[C@@H](Cc1cc(I)c(Oc2ccc(O)c(I)c2)c(I)c1)C(=O)O [T3, 3,5,3′-triiodothyronine]
countenance and alertness (ptosis, adrenergic dysregulation) (patients with AD): rapid, within days, and dramatic wide-eyed countenance and an appearance of increased alertness
time to peak levels [1]: one to two
histology, memory and electrophysiological activity in the cholinergic system (rat model of AD): improved histology, memory and electrophysiological activity in the cholinergic system
time of release to completion [2]: 2 to 8 h
